From patent publication US10357493B2, “Metalloenzyme inhibitor compounds” (Selenity Therapeutics (Bermuda), Ltd., priority 2017, dated 2019)
Where two headings read alike, the source gives them in different places.

What was measured:
Type in all cases: biochemical
HDAC7 = HDAC7 (Homo sapiens (Human), UniProt Q8WUI4); experiment: HDAC7 enzymatic assay; settings: selectivity profile; read-out: HDAC Enzyme IC50, HDAC 7
Method: (§1) All enzymatic reactions were conducted in duplicate at room temperature for 17 hours in a 50 μl mixture containing HDAC assay buffer (50 mM Tris-HCl, pH 7.4, 137 mM NaCl, 2.7 mM KCl, 0.05% Tween 20, 5 μg BSA), an HDAC substrate, an HDAC enzyme, and a test compound. Compound dilution was prepared ten-fold higher than the final concentration of the compounds with 10% DMSO in HDAC assay buffer and 5 μl of the dilution was added to a 50 μl reaction so that the final concentration of DMSO is 1% in all of reactions. After enzymatic reactions, 50 μl of HDAC Developer was added to each well and the plate was incubated at room temperature for an additional 20 minutes. Fluorescence intensity was measured at an excitation of 360 nm and an emission of 460 nm using a Tecan Infinite M1000 or Biotek Synergy microplate reader.
(§2) The fluorescent intensity data were analyzed using the computer software, Graphpad Prism. In the absence of the compound, the fluorescent intensity (Ft) in each data set was defined as 100% activity. In the absence of HDAC, the fluorescent intensity (Fb) in each data set was defined as 0% activity. The percent activity in the presence of each compound was calculated according to the following equation: % activity=(F−Fb)/(Ft−Fb), where F=the fluorescent intensity in the presence of the compound.
(§3) The values of % activity versus a series of compound concentrations were then plotted using non-linear regression analysis of Sigmoidal dose-response curve generated with the equation Y=B+(T−B)/1+10((Log EC50−X)×Hill Slope), where Y=percent activity, B=minimum percent activity, T=maximum percent activity, X=logarithm of compound and Hill Slope=slope factor or Hill coefficient. The IC50 value was determined by the concentration causing a half-maximal percent activity.
(§4) HDAC1 enzymatic assays contained 0.5 ng HDAC1 and 10 uM of HDAC substrate. HDAC2 enzymatic assays contained 0.5 ng HDAC2 and 10 uM of HDAC substrate. HDAC3 enzymatic assays contained 0.4 ng HDAC3/NCOR2 and 10 uM of HDAC substrate. HDAC4 enzymatic assays contained 0.02 ng HDAC4 and 2 uM of HDAC substrate. HDAC5 enzymatic assays contained 0.5 ng HDAC5 and 2 uM of HDAC substrate. HDAC6 enzymatic assays contained 2 ng HDAC6 and 10 uM of HDAC substrate. HDAC7 enzymatic assays contained 0.05 ng HDAC7 and 2 uM of HDAC substrate. HDAC8 enzymatic assays contained 5 ng HDAC8 and 2 uM of HDAC substrate. HDAC9 enzymatic assays contained 1 ng HDAC9 and 2 uM of HDAC substrate. HDAC10 enzymatic assays contained 75 ng HDAC10 and 10 uM of HDAC substrate. HDAC11 enzymatic assays contained 5 ng HDAC11 and 2 uM of HDAC substrate.

HDAC1 = HDAC1 (Homo sapiens (Human), UniProt Q13547); experiment: HDAC1 enzymatic assay
In short: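 HDAC1 activity was measured in duplicate 50 μl reactions containing 0.5 ng HDAC1, 10 uM of HDAC substrate, and test compound in buffer (50 mM Tris-HCl, pH 7.4, 137 mM NaCl, 2.7 mM KCl, 0.05% Tween 20, 5 μg BSA) with 1% DMSO, incubated 17 hours at room temperature. HDAC Developer was then added for 20 minutes and fluorescence read at 360/460 nm.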

HDAC4 = HDAC4 (Homo sapiens (Human), UniProt P56524); experiment: HDAC4 enzymatic assay; settings: selectivity profile; read-out: HDAC Enzyme IC50, HDAC 4
Method: as §1, §2, §3, §4

HDAC8 = HDAC8 (Homo sapiens (Human), UniProt Q9BY41); experiment: HDAC8 enzymatic assay; settings: selectivity profile; read-out: HDAC Enzyme IC50, HDAC 8
Method: as §1, §2, §3, §4

HDAC5 = HDAC5 (Homo sapiens (Human), UniProt Q9UQL6); experiment: HDAC5 enzymatic assay; settings: selectivity profile; read-out: HDAC Enzyme IC50, HDAC 5
Method: as §1, §2, §3, §4

HDAC11 = HDAC11 (Homo sapiens (Human), UniProt Q96DB2); experiment: HDAC11 enzymatic assay; settings: selectivity profile; read-out: HDAC Enzyme IC50, HDAC 11
Method: as §1, §2, §3, §4

HDAC9 = HDAC9 (Homo sapiens (Human), UniProt Q9UKV0); experiment: HDAC9 enzymatic assay; settings: selectivity profile; read-out: HDAC Enzyme IC50, HDAC 9
Method: as §1, §2, §3, §4

HDAC2 = HDAC2 (Homo sapiens (Human), UniProt Q92769); experiment: HDAC2 enzymatic assay; settings: selectivity profile; read-out: HDAC Enzyme IC50, HDAC 2
Method: as §1, §2, §3, §4

HDAC10 = HDAC10 (Homo sapiens (Human), UniProt Q969S8); experiment: HDAC10 enzymatic assay; settings: selectivity profile; read-out: HDAC Enzyme IC50, HDAC 10
Method: as §1, §2, §3, §4

HDAC6 = HDAC6 (Homo sapiens (Human), UniProt Q9UBN7); experiment: HDAC6 enzymatic assay
In short: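 Human HDAC6 activity was measured in duplicate 50 μl reactions holding 2 ng HDAC6, 10 uM of HDAC substrate and test compound in HDAC assay buffer (50 mM Tris-HCl, pH 7.4, 137 mM NaCl, 2.7 mM KCl, 0.05% Tween 20, 5 μg BSA) with 1% DMSO, for 17 hours at room temperature. HDAC Developer was added for 20 minutes before reading fluorescence at 360/460 nm.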

HDAC3/NCOR2 = HDAC3/NCOR2 (Homo sapiens (Human), UniProt O15379); experiment: HDAC3 enzymatic assay; settings: selectivity profile; read-out: HDAC Enzyme IC50, HDAC 3
Method: as §1, §2, §3, §4

[1] = selectivity profile, read-out: HDAC Enzyme IC50, HDAC 1
[2] = selectivity profile, read-out: HDAC Enzyme IC50, HDAC 6

Sequence of HDAC9 (Q9UKV0 whole entry, species assumed): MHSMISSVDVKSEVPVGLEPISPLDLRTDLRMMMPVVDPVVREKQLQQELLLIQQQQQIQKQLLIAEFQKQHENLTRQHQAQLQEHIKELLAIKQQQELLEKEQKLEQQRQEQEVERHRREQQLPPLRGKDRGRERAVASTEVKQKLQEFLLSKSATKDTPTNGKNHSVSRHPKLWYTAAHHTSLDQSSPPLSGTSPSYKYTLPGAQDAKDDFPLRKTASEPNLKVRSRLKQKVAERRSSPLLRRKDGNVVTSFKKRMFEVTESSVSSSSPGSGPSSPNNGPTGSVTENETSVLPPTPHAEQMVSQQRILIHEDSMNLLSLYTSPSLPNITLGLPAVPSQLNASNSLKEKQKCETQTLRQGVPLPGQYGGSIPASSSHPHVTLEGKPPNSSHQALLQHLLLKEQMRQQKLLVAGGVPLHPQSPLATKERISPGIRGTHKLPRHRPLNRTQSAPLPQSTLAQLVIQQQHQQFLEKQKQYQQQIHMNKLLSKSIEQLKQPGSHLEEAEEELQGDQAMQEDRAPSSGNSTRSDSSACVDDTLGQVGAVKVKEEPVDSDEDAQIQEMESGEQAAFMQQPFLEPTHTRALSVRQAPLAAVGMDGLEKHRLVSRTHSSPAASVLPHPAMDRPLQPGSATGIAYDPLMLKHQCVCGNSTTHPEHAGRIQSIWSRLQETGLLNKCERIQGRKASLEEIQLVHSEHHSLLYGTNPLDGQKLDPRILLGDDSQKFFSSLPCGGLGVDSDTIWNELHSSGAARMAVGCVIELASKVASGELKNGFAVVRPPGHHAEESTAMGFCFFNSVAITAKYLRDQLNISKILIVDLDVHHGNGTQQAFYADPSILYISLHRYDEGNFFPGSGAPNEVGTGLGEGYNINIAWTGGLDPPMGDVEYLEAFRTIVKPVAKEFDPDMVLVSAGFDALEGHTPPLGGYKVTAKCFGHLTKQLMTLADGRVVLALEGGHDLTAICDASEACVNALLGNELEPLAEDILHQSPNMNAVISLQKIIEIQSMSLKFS
Sequence of HDAC5 (Q9UQL6 whole entry, species assumed): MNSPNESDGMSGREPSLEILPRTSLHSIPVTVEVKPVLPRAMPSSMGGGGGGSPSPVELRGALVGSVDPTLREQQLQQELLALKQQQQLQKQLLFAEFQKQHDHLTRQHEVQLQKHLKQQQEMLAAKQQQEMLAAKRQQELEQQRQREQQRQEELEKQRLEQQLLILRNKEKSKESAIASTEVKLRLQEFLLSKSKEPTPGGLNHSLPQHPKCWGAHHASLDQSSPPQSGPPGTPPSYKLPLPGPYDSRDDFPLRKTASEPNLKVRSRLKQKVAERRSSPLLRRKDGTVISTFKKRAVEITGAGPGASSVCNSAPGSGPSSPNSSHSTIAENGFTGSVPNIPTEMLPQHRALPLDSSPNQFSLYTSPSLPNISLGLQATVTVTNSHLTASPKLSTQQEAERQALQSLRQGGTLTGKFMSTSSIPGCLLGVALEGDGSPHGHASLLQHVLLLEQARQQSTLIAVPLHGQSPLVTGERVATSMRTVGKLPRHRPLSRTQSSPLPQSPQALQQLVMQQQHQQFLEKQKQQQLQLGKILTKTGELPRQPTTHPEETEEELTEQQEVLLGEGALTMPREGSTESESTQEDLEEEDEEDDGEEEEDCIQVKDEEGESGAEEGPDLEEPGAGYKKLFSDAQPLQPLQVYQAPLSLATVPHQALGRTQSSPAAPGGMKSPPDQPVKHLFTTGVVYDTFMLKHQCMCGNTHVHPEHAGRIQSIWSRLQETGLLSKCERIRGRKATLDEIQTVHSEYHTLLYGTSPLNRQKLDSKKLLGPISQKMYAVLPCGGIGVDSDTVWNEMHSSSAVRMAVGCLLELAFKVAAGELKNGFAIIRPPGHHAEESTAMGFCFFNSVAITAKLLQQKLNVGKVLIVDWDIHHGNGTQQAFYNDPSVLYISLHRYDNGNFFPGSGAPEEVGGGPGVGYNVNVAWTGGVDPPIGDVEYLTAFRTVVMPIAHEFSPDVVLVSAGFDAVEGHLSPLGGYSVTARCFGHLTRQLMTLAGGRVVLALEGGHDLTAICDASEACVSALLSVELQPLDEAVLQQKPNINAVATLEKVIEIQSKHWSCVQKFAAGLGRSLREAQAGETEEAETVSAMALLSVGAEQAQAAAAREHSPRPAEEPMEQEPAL
Sequence of HDAC11 (Q96DB2 whole entry, species assumed): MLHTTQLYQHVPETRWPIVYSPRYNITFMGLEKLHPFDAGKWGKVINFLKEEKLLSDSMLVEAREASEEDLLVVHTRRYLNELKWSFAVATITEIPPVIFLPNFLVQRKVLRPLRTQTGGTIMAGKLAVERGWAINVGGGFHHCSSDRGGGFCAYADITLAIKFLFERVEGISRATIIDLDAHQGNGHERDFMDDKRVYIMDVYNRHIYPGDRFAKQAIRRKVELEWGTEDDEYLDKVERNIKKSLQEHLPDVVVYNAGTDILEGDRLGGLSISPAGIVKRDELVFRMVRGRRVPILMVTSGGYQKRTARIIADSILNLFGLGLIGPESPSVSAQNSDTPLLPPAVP
Sequence of HDAC6 (Q9UBN7 whole entry): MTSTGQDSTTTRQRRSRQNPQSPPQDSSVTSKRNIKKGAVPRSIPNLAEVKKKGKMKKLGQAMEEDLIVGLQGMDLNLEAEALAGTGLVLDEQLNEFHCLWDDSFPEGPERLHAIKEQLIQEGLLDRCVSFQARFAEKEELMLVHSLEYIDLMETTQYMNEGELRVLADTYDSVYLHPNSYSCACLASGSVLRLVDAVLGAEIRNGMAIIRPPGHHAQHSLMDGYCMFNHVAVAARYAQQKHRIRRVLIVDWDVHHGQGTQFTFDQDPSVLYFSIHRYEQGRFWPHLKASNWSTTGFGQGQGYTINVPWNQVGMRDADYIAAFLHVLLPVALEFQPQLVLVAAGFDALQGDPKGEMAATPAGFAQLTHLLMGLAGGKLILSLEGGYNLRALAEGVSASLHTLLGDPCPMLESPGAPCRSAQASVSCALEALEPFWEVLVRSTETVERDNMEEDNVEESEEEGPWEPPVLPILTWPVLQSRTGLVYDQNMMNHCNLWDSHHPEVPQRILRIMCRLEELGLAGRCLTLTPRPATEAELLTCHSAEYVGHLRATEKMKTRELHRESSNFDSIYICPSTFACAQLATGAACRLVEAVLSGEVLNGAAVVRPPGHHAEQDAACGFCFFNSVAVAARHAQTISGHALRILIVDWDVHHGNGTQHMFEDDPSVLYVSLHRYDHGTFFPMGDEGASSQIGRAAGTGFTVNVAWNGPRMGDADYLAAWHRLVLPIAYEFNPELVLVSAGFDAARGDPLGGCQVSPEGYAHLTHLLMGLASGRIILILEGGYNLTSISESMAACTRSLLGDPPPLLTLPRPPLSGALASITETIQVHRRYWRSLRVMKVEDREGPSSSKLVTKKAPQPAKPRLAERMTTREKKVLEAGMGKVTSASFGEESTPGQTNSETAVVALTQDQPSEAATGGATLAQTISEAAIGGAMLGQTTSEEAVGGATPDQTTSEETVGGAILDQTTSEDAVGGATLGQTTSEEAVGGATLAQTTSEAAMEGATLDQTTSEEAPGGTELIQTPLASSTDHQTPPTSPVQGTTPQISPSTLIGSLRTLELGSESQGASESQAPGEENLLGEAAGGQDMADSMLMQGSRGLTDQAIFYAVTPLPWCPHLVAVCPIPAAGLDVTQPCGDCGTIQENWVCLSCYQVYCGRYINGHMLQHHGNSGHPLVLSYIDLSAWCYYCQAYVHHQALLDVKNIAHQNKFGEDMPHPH
Sequence of HDAC10 (Q969S8 whole entry, species assumed): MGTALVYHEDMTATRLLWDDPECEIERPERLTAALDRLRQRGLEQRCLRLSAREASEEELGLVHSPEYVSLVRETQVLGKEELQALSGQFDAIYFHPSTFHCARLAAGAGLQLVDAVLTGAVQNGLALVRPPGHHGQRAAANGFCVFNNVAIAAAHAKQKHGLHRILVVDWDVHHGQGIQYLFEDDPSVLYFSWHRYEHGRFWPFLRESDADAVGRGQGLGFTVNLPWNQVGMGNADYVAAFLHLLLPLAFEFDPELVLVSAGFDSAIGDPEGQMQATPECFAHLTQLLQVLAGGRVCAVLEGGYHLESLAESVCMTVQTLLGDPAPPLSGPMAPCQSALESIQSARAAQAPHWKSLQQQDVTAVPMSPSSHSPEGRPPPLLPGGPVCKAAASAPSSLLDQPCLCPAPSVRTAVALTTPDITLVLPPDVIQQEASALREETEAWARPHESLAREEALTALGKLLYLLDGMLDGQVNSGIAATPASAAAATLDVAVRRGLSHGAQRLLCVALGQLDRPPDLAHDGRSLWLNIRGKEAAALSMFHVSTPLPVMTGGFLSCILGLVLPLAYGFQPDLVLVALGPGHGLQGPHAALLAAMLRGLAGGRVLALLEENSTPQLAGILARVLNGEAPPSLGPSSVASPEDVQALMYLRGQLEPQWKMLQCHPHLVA
Sequence of HDAC8 (Q9BY41 whole entry, species assumed): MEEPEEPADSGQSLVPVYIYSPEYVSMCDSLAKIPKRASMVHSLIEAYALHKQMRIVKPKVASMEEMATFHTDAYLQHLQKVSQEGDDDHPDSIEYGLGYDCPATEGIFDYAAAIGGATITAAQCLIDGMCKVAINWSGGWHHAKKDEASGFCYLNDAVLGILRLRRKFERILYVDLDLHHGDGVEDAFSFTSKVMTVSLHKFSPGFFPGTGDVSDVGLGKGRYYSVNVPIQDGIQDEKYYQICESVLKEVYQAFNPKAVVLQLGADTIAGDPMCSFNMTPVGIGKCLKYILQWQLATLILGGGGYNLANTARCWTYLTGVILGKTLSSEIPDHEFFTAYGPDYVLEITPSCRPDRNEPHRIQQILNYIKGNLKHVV

| SMILES | IC50 (HDAC7) | IC50 (HDAC1; read-out: Human HDAC1 IC50) | IC50 (HDAC1; [1]) | IC50 (HDAC4) | IC50 (HDAC8) | IC50 (HDAC5) | IC50 (HDAC11) | IC50 (HDAC9) | IC50 (HDAC2) | IC50 (HDAC10) | IC50 (HDAC6; read-out: Human HDAC6 IC50) | IC50 (HDAC6; [2]) | IC50 (HDAC3/NCOR2) |
| --- | --- | --- | --- | --- | --- | --- | --- | --- | --- | --- | --- | --- | --- |
| CS(=O)(=O)CC(Nc1ncc(-c2nnc(C(F)F)o2)cn1)c1ccc(F)cc1 (single isomer, unassigned) [161(+), 5-(5-(difluoromethyl)-1,3,4-oxadiazol-2-yl)-N-(1-(4-fluorophenyl)-2-(methylsulfonyl)ethyl)pyrimidin-2-amine] | > 30 µM | > 30 µM | > 30 µM | > 30 µM | > 30 µM | > 30 µM | > 30 µM | > 30 µM | > 30 µM | > 30 µM | 0.043 µM | 0.043 µM | > 30 µM |
| FC(F)c1nnc(-c2cnc(NC3(c4ccccc4)CC3)nc2)o1 [Example 4, 5-(5-(difluoromethyl)-1,3,4-oxadiazol-2-yl)-N-(1-phenylcyclopropyl)pyrimidin-2-amine] | > 30 µM | > 30 µM | > 30 µM | > 30 µM | > 30 µM | > 30 µM | > 30 µM | > 30 µM | > 30 µM | > 30 µM | 0.023 µM | 0.023 µM | > 30 µM |
| Fc1ccc(C2(Nc3ncc(-c4nnc(C(F)F)o4)cn3)CC2)cc1 [Example 5, 5-(5-(difluoromethyl)-1,3,4-oxadiazol-2-yl)-N-(1-(4-fluorophenyl)cyclopropyl)pyrimidin-2-amine] | > 30 µM | > 100 µM | > 100 µM | > 30 µM | > 30 µM | > 30 µM | > 30 µM | > 30 µM | > 30 µM | > 30 µM | 0.034 µM | 0.034 µM | > 30 µM |
| O=C(NCC(Nc1ncc(-c2nnc(C(F)F)o2)cn1)c1ccc(F)cc1)C1CC1 (single isomer, unassigned) [168(+), N-(2-((5-(5-(difluoromethyl)-1,3,4-oxadiazol-2-yl)pyrimidin-2-yl)amino)-2-(4-fluorophenyl)ethyl)cyclopropanecarboxamide] | 24.4 µM | > 30 µM | > 30 µM | 13.8 µM | > 30 µM | > 30 µM | > 30 µM | > 30 µM | > 30 µM | > 30 µM | 0.029 µM | 0.029 µM | > 30 µM |

Now from value to compound:

| IC50 (HDAC7) | IC50 (HDAC1; read-out: Human HDAC1 IC50) | IC50 (HDAC1; [1]) | IC50 (HDAC4) | IC50 (HDAC8) | IC50 (HDAC5) | IC50 (HDAC11) | IC50 (HDAC9) | IC50 (HDAC2) | IC50 (HDAC10) | IC50 (HDAC6; read-out: Human HDAC6 IC50) | IC50 (HDAC6; [2]) | IC50 (HDAC3/NCOR2) | SMILES |
| --- | --- | --- | --- | --- | --- | --- | --- | --- | --- | --- | --- | --- | --- |
| > 30 µM | > 30 µM | > 30 µM | > 30 µM | > 30 µM | > 30 µM | > 30 µM | > 30 µM | > 30 µM | > 30 µM | 0.036 µM | 0.036 µM | > 30 µM | Fc1ccc(C(CC(F)(F)F)Nc2ncc(-c3nnc(C(F)F)o3)cn2)cc1 (stereo not drawn) [Example 13, 5-(5-(difluoromethyl)-1,3,4-oxadiazol-2-yl)-N-(3,3,3-trifluoro-1-(4-fluorophenyl)propyl) pyrimidin-2-amine] |
| > 30 µM | > 30 µM | > 30 µM | > 30 µM | > 30 µM | > 30 µM | > 30 µM | > 30 µM | > 30 µM | > 30 µM | 0.008 µM | 0.008 µM | > 30 µM | Fc1ccc(C2(Nc3ncc(-c4nnc(C(F)F)o4)cn3)CC2)c(Cl)c1 [Example 62, N-(1-(2-chloro-4-fluorophenyl)cyclopropyl)-5-(5-(difluoromethyl)-1,3,4-oxadiazol-2-yl)pyrimidin-2-amine] |
| > 30 µM | > 30 µM | > 30 µM | > 30 µM | > 30 µM | > 30 µM | > 30 µM | > 30 µM | > 30 µM | > 30 µM | 0.038 µM | 0.038 µM | > 30 µM | CC(C)(Nc1ncc(-c2nnc(C(F)F)o2)cn1)c1ccc(F)cc1 [Example 9, 5-(5-(difluoromethyl)-1,3,4-oxadiazol-2-yl)-N-(2-(4-fluorophenyl)propan-2-yl)pyrimidin-2-amine] |
| > 30 µM | > 30 µM | > 30 µM | > 30 µM | > 30 µM | > 30 µM | > 30 µM | > 30 µM | > 30 µM | > 30 µM | 0.028 µM | 0.028 µM | > 30 µM | C[C@@H](Nc1ncc(-c2nnc(C(F)F)o2)cn1)c1ccc(F)cc1F [Example 99-R, 5-[5-(difluoromethyl)-1,3,4-oxadiazol-2-yl]-N-[(1R)-1-(2,4-difluorophenyl)ethyl]pyrimidin-2-amine] |
| > 30 µM | > 100 µM | > 100 µM | > 30 µM | > 30 µM | > 30 µM | > 30 µM | > 30 µM | > 30 µM | > 30 µM | 0.006 µM | 0.006 µM | > 30 µM | Fc1cccc(F)c1C1(Nc2ncc(-c3nnc(C(F)F)o3)cn2)CC1 [Example 11, 5-(5-(difluoromethyl)-1,3,4-oxadiazol-2-yl)-N-(1-(2,6-difluorophenyl)cyclopropyl)pyrimidin-2-amine] |
